Results taken from patent US4294833A, “Substituted 4-hydroxy-isophthalic acid picolylamides having a pharmaceutical activity in thromboembolic disorders” (Societa Italo-Britannica, priority 1977, dated 1981).

Key:
[1] = test system: platelet aggregation induced by ADP; test: Platelet aggregation inhibitory activity in vivo (Born aggregometer), ADP-induced; set-up: species or system New Zealand rabbits; settings: Oryctolagus cuniculus, Platelet, ip, dose for 50% inhibition of ADP-induced aggregation curve; rabbits, intraperitoneal, blood 2, 4 and 6 hours after injection; read-out: platelet antiaggregant activity (AAP), DI50, ADP
Method: (§1) Determination of the platelet aggregation inhibitory activity in vivo
(§2) The activity of the above described compounds as platelet antiaggregant was tested in vivo on rabbits, by the Born aggregometer. The inhibition of the aggregation curve induced by ADP and thrombin was assessed with different drug concentrations according to the platelet reactivity. New Zealand rabbits which had been held fasting for 12 hours with water ad libitum, were anaesthetized with Nembutal in a dose of 35 mg/kg intramuscolarly. The blood was withdrawn from the carotidal arthery, before (control) and 2, 4, and 6 hours after the intraperitoneal injection of the compounds under examination (at the dose indicated below). The blood samples were taken up in a 3.8% aqueous solution of sodium citrate in a ratio 10:1 and thereupon centrifuged at 1500 r.p.m. for 10 minutes, for obtaining a PRP (platelet rich plasma). A portion of such a plasma was thereupon centrifuged at 8000 r.p.m. for 10 minutes, for obtaining a PPP (platelet lean plasma) which was used for zeroing the measuring apparatus.
(§3) From the results of said experiments, there was determined the dose of each product in mg/kg body weight able to induce a 50% inhibition of the aggregation curve (DI50) after treatment, referred to the curve obtained by the same control plasma before treatment.
(§4) In tables I and II are further indicated for each compound the method of preparation; the melting point PF in °C; the platelet antiaggregant activity (AAP) expressed in terms of DI50 in mg/kg, referred to ADP and thrombin respectively; the antithrombin activity (AT) in %; the anticoagulant activity (AC) in %; the fibrinolytic activity (FL) in %; the acute toxicity (LD50) in mice, intraperitoneally, in mg/kg, as previously defined.

[2] = test system: platelet aggregation induced by thrombin; test: Platelet aggregation inhibitory activity in vivo (Born aggregometer), thrombin-induced; set-up: species or system New Zealand rabbits; settings: Oryctolagus cuniculus, Platelet, ip, dose for 50% inhibition of thrombin-induced aggregation curve; rabbits, intraperitoneal, blood 2, 4 and 6 hours after injection; read-out: platelet antiaggregant activity (AAP), DI50, Thrombin
Method: as §1, §2, §3, §4

[3] = test system: thrombin-induced coagulation of platelet rich plasma; test: Antithrombin activity on PRP, Hartert's thromboelastograph; type: in vivo, New Zealand rabbits; settings: Oryctolagus cuniculus, Platelet, ip, percent decrease of index ma/[r+k] vs before treatment; 20 mg/kg intraperitoneal, rabbits
Method: Determination of the antithrombin activity
The antithrombin activity on the PRP (platelet rich plasma) obtained following the above described method was assessed by Hartert's thromboelastograph (Hellige model). The coagulation was induced by adding to 0.25 ml of plasma 0.06 ml of a thrombin solution (Roche Topostasin® per os) at 60 units*, pH 7.4**. The antithrombin activity was assessed in terms of a percent decrease of the index (ma/[r+k]) which was calculated from the thromboelastograph diagram, wherein r is the reaction time, k is the speed of the coagulum formation and ma is the maximum spread of the tong, after an intraperitoneal treatment with a dose of 20 mg/kg of each compound under examination, referred to the same index obtained before the treatment (control).
as §4

[4] = test system: CaCl2-induced plasma coagulation; test: Anticoagulant activity on PRP, Hartert's thromboelastograph; type: in vivo, New Zealand rabbits; settings: Oryctolagus cuniculus, ip, percent increase of total time for coagulum formation (r+k) vs before treatment; 25 mg/kg intraperitoneal, rabbits; read-out: anticoagulant activity (AC)
Method: Determination of the anticoagulant activity
The anticoagulant activity was also assessed on PRP of animals treated as described in the preceding methods, by using again Hartert's thromboelastograph method.
The plasma coagulation was induced by adding to 0.25 ml PRP a 1.29% solution of CaCl2.
The anticoagulant effect was determined as a percent increase of the total time for the coagulum formation (the index r+k can be obtained from the thromboelastograph diagram) in a plasma after treatment, referred to the same index obtained before the treatment (control). Again the dose level was 25 mg/kg for each compound under examination, intraperitoneally.
as §4

[5] = test system: blood coagulum; test: Fibrinolytic activity, Fearnley method (lysis of blood coagulum in toto); type: in vivo; settings: Oryctolagus cuniculus, ip, 0.5 h, percent decrease of coagulum weight after 30 minutes at 37° C.; 25 mg/kg intraperitoneal, rabbits; read-out: fibrinolytic activity (FL)
Method: Determination of the fibrinolytic activity
The determination of the fibrinolytic activity was made following the Fearnley method for the lysis of the blood coagulum in toto.
0.2 ml of blood were withdrawn from the marginal vein of the ear of rabbits treated in the same way as the previously described tests, before and after an intraperitoneal injection of the compounds under test at a dose level of 25 mg/kg for each compound.
The blood samples were placed in test tubes containing 1.7 ml of phosphate buffer at pH 7.4 and 0.1 ml of thrombin (Roche Topostasin ® per os) at 50 units NIH/ml, and maintained in an ice bath. The test tubes were maintained at said temperature for 30 minutes and thereupon were transferred to a temperature controlled water bath at 37° C.
The fibrinolytic activity was determined as a percent decrease of the coagulum weight, measured after incubation for 30 minutes at 37° C.
as §4

[6] = Acute toxicity, intraperitoneal; settings: mouse, in vivo, ip, male Swiss mice, intraperitoneal, 7 days observation; preliminary, by graphic interpolation; read-out: acute toxicity (LD50 / DL50)
Method: The acute toxicity limit was determined intraperitoneally on male Swiss mice, weighing 20±2 g, held fasting for 18 hours with water ad libitum.
The animals were maintained under observation for 7 days of treatment, by examining the general symptomatology and noting the death sequency. The preliminary DL50 in mg/kg body weight was calculated by graphic interpolation of the results as obtained.
as §4

Compound	ED50 [1] [mg/kg]	ED50 [2] [mg/kg]	inhibition in vivo at 20 mg/kg [3] [%]	change in vivo at 25 mg/kg [4] [%]	fibrinolytic activity (percent decrease of coagulum weight) at 25 mg/kg [5] [%]	LD50 at 168 h [6] [mg/kg]
C=CCCCCOc1ccc(C(=O)NCc2cccnc2)cc1C(=O)NCc1cccnc1 [Example 10]	29.4	21.1	52.6	12.6	43.9	194
O=C(NCc1ccncc1)c1ccc(O)c(C(=O)NCc2ccncc2)c1 [Example 57]	26	19.2	38.4	19	32.1	661
C=C(C)Oc1c(Cl)cc(C(=O)N(C)Cc2cccnc2)cc1C(=O)N(C)Cc1cccnc1 [Example 52]	49.2	32.1	29.1	14.2	26.7	194
C=CCCOc1ccc(C(=O)NCc2cccnc2)cc1C(=O)NCc1cccnc1 [Example 8]	35.5	25.7	50.6	14.2	42.1	362
C=CCOc1c(C(=O)NCc2cccnc2)cc(C(=O)NCc2cccnc2)cc1[N+](=O)[O-] [Example 36]	36.3	27.1	23	11.9	19.1	267
CC(C)(C)Oc1ccc(C(=O)NCc2cccnc2)cc1C(=O)NCc1cccnc1 [Example 16]	45.2	30.3	27.6	13.6	21.9	325
C=C(C)COc1ccc(C(=O)N(Cc2cccnc2)C(C)C)cc1C(=O)N(Cc1cccnc1)C(C)C [Example 56]	29.1	21.4	47.3	18.6	38.1	352
C=CC(C)Oc1ccc(C(=O)NCc2cccnc2)cc1C(=O)NCc1cccnc1 (stereo not drawn) [Example 54]	32.3	21.2	46.3	18.7	35.2	355
CCCCCCOc1ccc(C(=O)NCc2ccncc2)cc1C(=O)NCc1ccncc1 [Example 60]	20.3	17.5	48.6	22.2	38.5	206
CC=CCOc1ccc(C(=O)N(C)Cc2ccncc2)cc1C(=O)N(C)Cc1ccncc1 [Example 69]	26.1	19.3	48.7	14.2	41.6	210
CC=COc1c(Cl)cc(C(=O)N(Cc2cccnc2)C(C)(C)CC)cc1C(=O)N(Cc1cccnc1)C(C)(C)CC [Example 47]	55.8	36.2	25.6	12.8	19.5	210
CC(C)(C)COc1ccc(C(=O)NCc2cccnc2)cc1C(=O)NCc1cccnc1 [Example 34]	35.6	27.3	29.7	13.6	22.7	351
COc1c(Cl)cc(C(=O)NCc2ccncc2)cc1C(=O)NCc1ccncc1 [Example 66]	67.2	42.5	25	13.6	20.2	437
CC=CCOc1ccc(C(=O)NCc2cccnc2)cc1C(=O)NCc1cccnc1 [Example 11]	25.3	18.6	52.3	13.5	44.2	178
C=C(C)Oc1c(Cl)cc(C(=O)N(C)Cc2ccncc2)cc1C(=O)N(C)Cc1ccncc1 [Example 68]	47.5	30	35.2	15.5	30	255
COc1c(Cl)cc(C(=O)NCc2cccnc2)cc1C(=O)NCc1cccnc1 [Example 23]	63.4	46.9	22.5	12.2	16.8	425
COc1cc(C(=O)NCc2cccnc2)cc(C(=O)NCc2cccnc2)c1OCC(C)(C)C [Example 37]	44.6	32	25.5	14.2	21.9	378
